Assay results reported in ChEMBL document CHEMBL1156977, “Synthesis of new beta-1-C-alkylated imino-L-iditols: A comparative study of their activity as beta-glucocerebrosidase inhibitors” (Bioorg Med Chem, 2010).

Columns and labels:
[1] = target: T1, Lysosomal acid glucosylceramidase (Homo sapiens, UniProt P04062); assay: Inhibition of human recombinant beta-glucocerebrosidase assessed as p-nitrophenolate accumulation preincubated for 10 mins before p-nitrophenyl-beta-d-glucopyranoside addition measured after 10 mins by […]
T1 sequence (P04062 whole entry): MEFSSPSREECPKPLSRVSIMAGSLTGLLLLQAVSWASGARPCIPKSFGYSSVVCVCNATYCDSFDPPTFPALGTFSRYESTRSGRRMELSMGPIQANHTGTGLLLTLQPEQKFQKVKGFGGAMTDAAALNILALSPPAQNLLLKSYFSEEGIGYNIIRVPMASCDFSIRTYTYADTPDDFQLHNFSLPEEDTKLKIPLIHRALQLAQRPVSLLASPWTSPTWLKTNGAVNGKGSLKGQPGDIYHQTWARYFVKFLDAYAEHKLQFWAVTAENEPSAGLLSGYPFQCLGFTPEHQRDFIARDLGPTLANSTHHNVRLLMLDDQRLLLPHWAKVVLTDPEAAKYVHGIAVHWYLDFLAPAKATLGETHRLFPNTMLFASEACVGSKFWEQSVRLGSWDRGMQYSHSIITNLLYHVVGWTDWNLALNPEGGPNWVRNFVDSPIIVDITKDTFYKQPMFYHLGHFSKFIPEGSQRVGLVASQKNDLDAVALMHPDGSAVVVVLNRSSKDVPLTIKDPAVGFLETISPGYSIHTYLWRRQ

[2] = target: T2, Lysosomal acid glucosylceramidase (Homo sapiens) (UniProt P04062); assay: Inhibition of misfolded beta-glucocerebrosidase in human gaucher cells assessed as increase in enzyme activity at 10 nM; assay type: cell-based
T2 sequence (whole entry): T1 sequence (P04062 whole entry)

[3] = target: T2, Lysosomal acid glucosylceramidase (Homo sapiens); assay: Inhibition of human recombinant beta-glucocerebrosidase assessed as p-nitrophenolate accumulation at 1000 uM preincubated for 10 mins before p-nitrophenyl-beta-d-glucopyranoside addition measured after 10 mins by […]

Row | IC50 [1] | Structure (SMILES) | other results
1 |  | CCCCCCCCC[C@H]1NC[C@@H](O)[C@H](O)[C@H]1O | Ki [1]: 0.0022 µM; fold change (FC) [2]: 2
2 | 147 µM | CCCCC1N[C@@H](CO)[C@@H](O)[C@H](O)[C@H]1O (single isomer, unassigned) | 
3 | 43 µM | CCCCCC[C@H]1N[C@@H](CO)[C@@H](O)[C@H](O)[C@H]1O | 
4 |  | OCC(O)C[C@H]1N[C@@H](CO)[C@@H](O)[C@H](O)[C@H]1O (stereo partly drawn) | inhibition [3]: < 50%
5 | 0.56 µM | CCC[C@H]1NC[C@@H](O)[C@H](O)[C@H]1O | 
6 | 0.019 µM | CCCCCC[C@H]1NC[C@@H](O)[C@H](O)[C@H]1O | 
7 | 487 µM | CCCC1N[C@@H](CO)[C@@H](O)[C@H](O)[C@H]1O (single isomer, unassigned) | 
